Data reported in patent EP0297534B1, “Castanospermine esters and glycosides” (MERRELL DOW PHARMACEUTICALS INC., priority 1987, dated 1989).

Experiments:
[1] = biological target: T1, Lysosomal α-Glucosidase (Rattus norvegicus, UniProt Q6P7A9); test: Lysosomal α-glucosidase inhibition (p-nitrophenyl-α-D-glucoside hydrolysis); format: biochemical; settings: partially purified from rat liver, 1 hour preincubation at 37°C, pH 4.2, read-out: IC₅₀ Lysosomal α-Glucosidase
T1 construct: Lysosomal α-glucosidase was isolated and partially purified from rat liver; from tissue; host or cells: rat liver
T1 sequence (Q6P7A9 70-953): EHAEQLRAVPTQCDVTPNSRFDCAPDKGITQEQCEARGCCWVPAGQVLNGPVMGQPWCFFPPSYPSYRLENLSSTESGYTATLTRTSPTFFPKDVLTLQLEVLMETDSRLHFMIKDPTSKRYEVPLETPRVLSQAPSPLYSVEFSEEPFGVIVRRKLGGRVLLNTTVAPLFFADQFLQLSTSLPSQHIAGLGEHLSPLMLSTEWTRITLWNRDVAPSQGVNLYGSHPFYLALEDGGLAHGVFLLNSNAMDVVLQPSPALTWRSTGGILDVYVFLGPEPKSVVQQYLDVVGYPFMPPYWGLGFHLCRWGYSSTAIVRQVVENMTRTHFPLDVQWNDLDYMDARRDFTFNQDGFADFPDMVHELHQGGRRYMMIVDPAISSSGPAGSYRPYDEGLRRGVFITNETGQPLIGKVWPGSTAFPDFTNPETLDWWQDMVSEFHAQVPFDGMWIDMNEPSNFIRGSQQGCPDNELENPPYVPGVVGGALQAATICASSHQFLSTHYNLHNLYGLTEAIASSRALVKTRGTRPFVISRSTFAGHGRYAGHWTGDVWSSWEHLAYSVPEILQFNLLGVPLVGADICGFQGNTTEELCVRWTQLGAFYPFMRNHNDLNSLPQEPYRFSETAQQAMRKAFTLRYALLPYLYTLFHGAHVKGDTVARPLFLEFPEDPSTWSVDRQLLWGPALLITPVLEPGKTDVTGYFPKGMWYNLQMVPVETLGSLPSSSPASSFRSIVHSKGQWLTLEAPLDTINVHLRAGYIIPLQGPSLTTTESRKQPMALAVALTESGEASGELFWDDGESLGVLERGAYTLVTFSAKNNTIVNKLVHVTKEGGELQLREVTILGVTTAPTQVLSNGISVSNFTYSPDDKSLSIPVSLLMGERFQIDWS
Description: Lysosomal α-glucosidase was isolated and partially purified from rat liver by the method of Dissous [Anal. Biochem., 116, 35 (1981)] through the ammonium sulfate fractionation steps. Enzyme was incubated with test compound for 1 hour at 37°C prior to the addition of p-nitrophenyl-α-D-glucoside in a final volume of 0.6 ml of 0.1 M sodium acetate, 25 mM potassium chloride, pH 4.2. Mixtures were incubated for an additional 30 minutes at 37°C and then heat inactivated at 90°C. Denatured protein was removed by centrifugation. One ml of 0.1 M sodium carbonate was added to the supernatant fraction and liberated nitrophenol determined by its absorption at 410 nm.

[2] = biological target: T2, Intestinal Sucrase (Rattus norvegicus, UniProt P23739); test: Intestinal sucrase inhibition (glucose liberated from sucrose); format: biochemical; settings: crude homogenate from rat intestine; 1 hour preincubation with test compound; sucrose substrate, pH 5.9; read-out: IC₅₀ Intestinal Sucrase
T2 construct: Sucrase was isolated from rat intestine as a crude homogenate; from tissue; host or cells: rat intestine
T2 sequence (P23739 whole entry): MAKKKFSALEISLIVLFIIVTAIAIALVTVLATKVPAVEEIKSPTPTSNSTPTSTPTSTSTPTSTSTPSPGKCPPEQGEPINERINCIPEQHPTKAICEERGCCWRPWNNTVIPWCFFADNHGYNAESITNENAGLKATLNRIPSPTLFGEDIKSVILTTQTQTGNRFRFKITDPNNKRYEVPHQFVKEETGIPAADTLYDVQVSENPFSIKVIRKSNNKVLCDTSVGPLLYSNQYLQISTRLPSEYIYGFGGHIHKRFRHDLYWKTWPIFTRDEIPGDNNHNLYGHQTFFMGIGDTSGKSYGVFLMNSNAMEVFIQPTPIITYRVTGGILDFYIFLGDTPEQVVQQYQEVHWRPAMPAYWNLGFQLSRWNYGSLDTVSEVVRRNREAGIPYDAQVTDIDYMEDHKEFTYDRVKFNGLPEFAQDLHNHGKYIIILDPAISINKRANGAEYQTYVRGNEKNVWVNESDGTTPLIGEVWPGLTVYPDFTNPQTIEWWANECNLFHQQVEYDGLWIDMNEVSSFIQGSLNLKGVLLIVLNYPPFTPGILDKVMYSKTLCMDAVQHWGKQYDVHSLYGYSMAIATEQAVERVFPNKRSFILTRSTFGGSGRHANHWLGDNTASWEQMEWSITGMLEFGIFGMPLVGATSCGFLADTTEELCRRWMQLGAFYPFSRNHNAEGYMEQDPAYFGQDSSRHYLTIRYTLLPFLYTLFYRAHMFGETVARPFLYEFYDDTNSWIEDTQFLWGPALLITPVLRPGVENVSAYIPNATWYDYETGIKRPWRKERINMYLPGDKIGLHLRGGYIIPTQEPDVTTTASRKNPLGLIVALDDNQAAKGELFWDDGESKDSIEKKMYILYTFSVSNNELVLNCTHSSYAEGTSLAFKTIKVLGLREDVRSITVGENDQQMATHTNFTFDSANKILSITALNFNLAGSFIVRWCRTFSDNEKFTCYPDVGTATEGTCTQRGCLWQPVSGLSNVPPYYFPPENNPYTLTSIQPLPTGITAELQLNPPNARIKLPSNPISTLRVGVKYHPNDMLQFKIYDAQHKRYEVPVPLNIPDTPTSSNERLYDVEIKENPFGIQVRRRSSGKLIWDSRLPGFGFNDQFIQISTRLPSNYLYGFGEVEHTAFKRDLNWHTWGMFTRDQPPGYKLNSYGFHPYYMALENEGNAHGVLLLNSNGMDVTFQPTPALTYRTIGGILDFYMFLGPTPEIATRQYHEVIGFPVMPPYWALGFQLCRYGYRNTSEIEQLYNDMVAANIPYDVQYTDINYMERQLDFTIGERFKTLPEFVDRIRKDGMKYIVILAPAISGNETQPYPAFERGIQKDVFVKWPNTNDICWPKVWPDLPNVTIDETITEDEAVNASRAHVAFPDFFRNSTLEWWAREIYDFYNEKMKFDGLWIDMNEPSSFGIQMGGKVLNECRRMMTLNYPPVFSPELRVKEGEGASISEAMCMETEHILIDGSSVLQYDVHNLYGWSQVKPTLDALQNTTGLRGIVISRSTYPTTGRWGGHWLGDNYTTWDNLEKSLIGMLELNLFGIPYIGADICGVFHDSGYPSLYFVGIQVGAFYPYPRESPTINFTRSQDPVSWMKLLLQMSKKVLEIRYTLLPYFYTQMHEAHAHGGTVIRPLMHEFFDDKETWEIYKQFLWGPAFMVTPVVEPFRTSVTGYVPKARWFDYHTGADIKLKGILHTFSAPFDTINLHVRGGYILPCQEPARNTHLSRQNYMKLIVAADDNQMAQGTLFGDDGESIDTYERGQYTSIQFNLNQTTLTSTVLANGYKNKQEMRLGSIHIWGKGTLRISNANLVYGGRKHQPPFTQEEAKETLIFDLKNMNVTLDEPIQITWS
Description: Sucrase was isolated from rat intestine as a crude homogenate using the salt extraction procedure of Kolinska [Biochem. Biophys. Acta, 284, 235 (1984)]. Incubation mixtures contained 100 µl of enzyme preparation plus test compound and were incubated for 1 hour before the addition of 6.6 µmole sucrose in 100 µl 0.1 M sodium maleate, pH 5.9. The mixtures were incubated an additional 30 minutes and then heat inactivated at 80-100°C for 3 minutes. Denatured protein was removed by centrifugation. Glucose liberated was determined by glucose dehydrogenase reagents (Seragen Diagnostics).

[3] = tested on: serum glucose elevation; test: Sucrose load test: inhibition of serum glucose elevation; format: in vivo, ICR Swiss mice; settings: for minimal effective dose: Mus musculus, 0.5 h, oral, test compound plus sucrose at 2.0 g/kg, serum glucose at 30 minutes post sucrose, amount needed to significantly inhibit serum glucose elevation; for Duration Of Action: oral test compound 1, 2 or 3 hours before sucrose at 2.0 g/kg, serum glucose 30 minutes post sucrose
Description: The compounds of the present invention were further tested in a sucrose load test to determine their ability to inhibit serum glucose elevation. The procedure can be summarized as follows.
ICR Swiss mice, fasted for 18-20 hours, were orally dosed with test compound plus sucrose at 2.0 g/kg. At 30 minutes post sucrose, the animals were sacrificed and their serum glucose concentrations were determined. […] To test duration of action, mice were orally dosed twice. The initial dose was test compound or vehicle. After 1, 2, or 3 hours, the mice were dosed with sucrose at 2.0 g/kg. After an additional 30 minutes post sucrose, the animals were sacrificed and their serum glucose concentrations were determined. Test compound activity was indicated by a significant difference of serum glucose concentration from the corresponding control. The activity observed can be summarized as follows: TABLE II

SMILES	IC50 [1]	IC50 [2]	minimal effective dose [3]	Duration Of Action [3]
O=C(O[C@H]1[C@H](O)[C@H]2[C@@H](O)CCN2C[C@@H]1OC(=O)c1ccccc1)c1ccccc1 [6,7-Dibenzoate, [1S-(1α,6β,7α,8β,8aβ)]-octahydro-1,6,7,8-indolizinetetrol 6,7-dibenzoate]	> 1000 µM	2 µM	20 mg/kg	
CCCC(=O)O[C@H]1[C@H](O)[C@@H](OC(=O)CCC)CN2CC[C@H](O)[C@H]12 [6,8-Dibutyrate, [1S-(1α,6β,7α,8β,8aβ)]-octahydro-1,6,7,8-indolizinetetrol 6,8-dibutanoate]	> 1000 µM	0.2 µM		
O=C(O[C@H]1CN2CC[C@H](O)[C@@H]2[C@@H](O)[C@@H]1O)c1ccc(F)cc1 [6-(4-Fluorobenzoate), [1S-(1α,6β,7α,8β,8aβ)]-octahydro-1,6,7,8-indolizinetetrol 6-(4-fluorobenzoate)]	4 µM	0.2 µM	5 mg/kg	
Cc1ccc(C(=O)O[C@H]2CN3CC[C@H](O)[C@@H]3[C@@H](O)[C@@H]2O)cc1 [6-(4-Methylbenzoate), [1S-(1α,6β,7α,8β,8aβ)]-octahydro-1,6,7,8-indolizinetetrol 6-(4-methylbenzoate)]	1000 µM	0.3 µM		
O=C(O[C@H]1[C@H](O)[C@H]2[C@@H](O)CCN2C[C@@H]1O)c1ccccc1 [7-Benzoate, [1S-(1α,6β,7α,8β,8aβ)]-octahydro-1,6,7,8-indolizinetetrol 7-benzoate]	200 µM	2 µM	5 mg/kg	

Second part, led by results:

IC50 [1]	IC50 [2]	SMILES	minimal effective dose [3]	Duration Of Action [3]
> 1000 µM	4 µM	O=C(O[C@H]1[C@H](O)[C@H]2[C@@H](O)CCN2C[C@@H]1OC(=O)c1ccc(F)cc1)c1ccc(F)cc1 [6,7-bis(4-Fluorobenzoate), [1S-(1α,6β,7α,8β,8aβ)]-octahydro-1,6,7,8-indolizinetetrol 6,7-bis(4-fluorobenzoate)]		
1000 µM	2 µM	COc1ccc(C(=O)O[C@H]2CN3CC[C@H](O)[C@@H]3[C@@H](O)[C@@H]2O)cc1 [6-(4-Methoxybenzoate), (1S-(1α,6β,7α,8β,8aβ)]-octahydro-1,6,7,8-indolizinetetrol 6-(4-methoxybenzoate)]		
800 µM	0.08 µM	O=C(O[C@H]1CN2CC[C@H](O)[C@@H]2[C@@H](O)[C@@H]1O)c1ccccc1 [6-Benzoate, (1S-(1α,6β,7α,8β,8aβ)]-octahydro-1,6,7,8-indolizinetetrol 6-benzoate]	1 mg/kg	1 hour hours
100 µM	0.4 µM	O=C(O[C@H]1[C@H](O)[C@H]2[C@@H](O)CCN2C[C@@H]1O)c1ccc(Cl)cc1Cl [7-(2,4-Dichlorobenzoate), [1S-(1α,6β,7α,8β,8aβ)]-octahydro-1,6,7,8-indolizinetetrol 7-(2,4-dichlorobenzoate)]	20 mg/kg	
6 µM	0.4 µM	O=C(O[C@H]1[C@H](O)[C@H]2[C@@H](O)CCN2C[C@@H]1O)c1ccc(F)cc1 [7-(4-Fluorobenzoate), [1S-(1α,6β,7α,8β,8aβ)]-octahydro-1,6,7,8-indolizinetetrol 7-(4-fluorobenzoate)]	5 mg/kg	2 h
300 µM	0.05 µM	OC[C@H]1O[C@H](O[C@H]2[C@H](O)[C@@H](O)CN3CC[C@H](O)[C@H]23)[C@H](O)[C@@H](O)[C@@H]1O [8-α-D-Glucopyranoside, 8-O-(α-D-glucopyranosyl)-[1S-(1α,6β,7α,8β,8aβ)]-octahydro-1,6,7,8-indolizinetetrol]	1 mg/kg	≧3 hours
